Measurements taken from article PMC5399312 (Journal of Experimental & Clinical Cancer Research : CR, 2017).
Read-outs that look alike come from different tables or passages of the source.

How the values were obtained:
[1] = design: method as in PMID 17551814; details: dose range of 500-2000 mg/Kg in mice; cited from earlier work
HK2 [2] = target: T1, HK2 (Homo sapiens, UniProt P52789); test: Microscale thermophoresis (MST) assay; format: binding; details: labelled HK2 20 nM, 25 °C
T1 construct: made in house; host or cells: E. coli BL21 (DE3)
T1 sequence (P52789 1-917): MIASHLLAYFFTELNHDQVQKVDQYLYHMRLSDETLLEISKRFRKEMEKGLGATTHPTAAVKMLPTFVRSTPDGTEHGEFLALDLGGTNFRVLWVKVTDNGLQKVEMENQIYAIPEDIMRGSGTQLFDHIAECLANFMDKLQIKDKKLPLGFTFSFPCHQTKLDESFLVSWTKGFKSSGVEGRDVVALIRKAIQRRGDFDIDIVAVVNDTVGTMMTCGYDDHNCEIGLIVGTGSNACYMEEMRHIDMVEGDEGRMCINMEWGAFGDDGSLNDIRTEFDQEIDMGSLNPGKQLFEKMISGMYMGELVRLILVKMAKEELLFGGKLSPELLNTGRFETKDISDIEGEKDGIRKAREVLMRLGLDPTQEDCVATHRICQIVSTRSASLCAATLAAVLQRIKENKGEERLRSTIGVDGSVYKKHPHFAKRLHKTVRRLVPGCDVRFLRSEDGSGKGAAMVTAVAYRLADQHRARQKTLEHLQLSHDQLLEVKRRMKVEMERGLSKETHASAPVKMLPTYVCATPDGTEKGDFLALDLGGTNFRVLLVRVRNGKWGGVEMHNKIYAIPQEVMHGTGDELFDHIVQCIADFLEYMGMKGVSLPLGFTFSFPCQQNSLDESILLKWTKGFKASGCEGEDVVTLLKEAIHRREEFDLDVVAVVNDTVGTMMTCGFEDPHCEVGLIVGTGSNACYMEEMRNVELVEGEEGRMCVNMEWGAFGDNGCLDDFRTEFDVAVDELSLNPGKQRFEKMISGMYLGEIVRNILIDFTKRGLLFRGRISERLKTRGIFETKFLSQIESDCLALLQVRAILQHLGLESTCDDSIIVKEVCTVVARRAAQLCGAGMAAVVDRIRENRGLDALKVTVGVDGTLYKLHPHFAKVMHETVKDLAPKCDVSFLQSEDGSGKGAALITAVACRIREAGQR
Procedure: MST was used to analyze the binding affinity between potential ligands and receptors. The purified HK2 was labeled with the Monolith NT™ Protein Labeling Kit RED (Cat # L001) according to the supplied labeling protocol. Labelled HK2 was kept constant at 20 nM, and all tested samples were 1:1 diluted in a 20 mM HEPES (pH 7.4) and 0.05 (v/v) % Tween-20. After 10 min incubation at room temperature, samples were loaded into Monolith™ standard-treated capillaries. And the thermophoresis was measured at 25 °C after 30 min incubation on a Monolith NT.115 instrument (Germany). Furthermore, laser power was set to 20% or 40% using 30 sec on-time. The LED power was set to 100%. The dissociation constant Kd values were fitted by using the NTAnalysis software.

HK2 [3] = target: T1, HK2; test: In vitro enzyme inhibition assay (G6P-DH coupled, NADH 340 nm); format: biochemical
Procedure: Then 85 μL assay mix containing 100 mM Tris HCl pH 8.0, 5 mM MgCl2, 200 mM Glucose, 0.8 mM ATP, 1 mM NAD^+, 0.25 Units of G6P-DH, was added.

[4] = Cytotoxicity test (CCK-8); format: cell-based
Procedure: (§1) Met was used as a positive control. All experiments were performed in triplicate.

SW480 = test: Cytotoxicity test (CCK-8); format: cell-based; details: Homo sapiens, SW480, 48 h
Procedure: as §1

HCT116 = test: Cytotoxicity test (CCK-8); format: cell-based; details: Homo sapiens, HCT-116; HCT116, 48 h
Procedure: as §1

Lovo = test: Cytotoxicity test (CCK-8); format: cell-based; details: Homo sapiens, 48 h
Procedure: as §1

MCF-7 = test: Cytotoxicity test (CCK-8); format: cell-based; details: Homo sapiens, MCF7; MCF-7, 48 h
Procedure: as §1

SMMC-7721 = test: Cytotoxicity test (CCK-8); format: cell-based; details: Homo sapiens, SMMC-7721, 48 h
Procedure: as §1

[5] = recombinant HK2, n.i means no enzyme inhibition
[6] = recombinant HK2, n.i means no enzyme inhibition, read-out: Enzyme IC50

SMILES: O=CC[C@@H](O)[C@H](O)[C@H](O)CO [2-DG, 2-Deoxyglucose]
- therapeutic activity as a single agent [1]: does not have significant therapeutic activity
- Kd (HK2 [2]): No binding affinity

SMILES: O=C(O)C(=O)CBr [3-BrPA, 3-Bromopyruvate]
- Kd (HK2 [2]; read-out: Kd): 742 ± 96.8 µM

SMILES: [H]/N=C(\N/C(=N/[H])NCCCCCCNC(=N)NC(=N)Nc1ccc(Cl)cc1)Nc1ccc(Cl)cc1 [Chlorhexidine]
- Enzyme IC50 (HK2 [3]; [5]): n.i

SMILES: O=C(CO)[C@@H](O)[C@H](O)[C@H](O)CO [D-Fructose]
- Enzyme IC50 (HK2 [3]; [5]): n.i ^C

SMILES: N[C@H]1C(O)O[C@H](CO)[C@@H](O)[C@@H]1O (stereo partly drawn) [D-Glucosamine]
- IC50 (HK2 [3]; [6]): > 1000 µM

SMILES: CNC[C@H](O)[C@@H](O)[C@H](O)[C@H](O)CO [Meglumine]
- IC50 (HK2 [3]): > 1000 µM

SMILES: CN(C)C(=N)N=C(N)N [Metformin]
- IC50 at 48 h ([4]; African green monkey, Vero normal cells): > 1000 µM
- IC50 at 48 h ([4]; human, LO2 normal cells): > 1000 µM
- IC50 (SW480): > 1000 µM
- IC50 (HCT116): > 1000 µM
- IC50 (Lovo): > 1000 µM
- IC50 (MCF-7): > 1000 µM
- IC50 (SMMC-7721): > 1000 µM
- Kd (HK2 [2]; read-out: Kd): 3930 ± 282 µM

SMILES: NCCC(O)(P(=O)(O)O)P(=O)(O)O [Pamidronate]
- Enzyme IC50 (HK2 [3]; [5]): n.i

SMILES: O=C(O)c1cc(/N=N/c2ccc(S(=O)(=O)Nc3ccccn3)cc2)ccc1O [Sulfasalazine]
- IC50 (HK2 [3]; [6]): > 1000 µM

SMILES: O=C1O[C@H]([C@@H](O)CO)C(O)=C1O [Vitamin C]
- IC50 (HK2 [3]; [6]): > 1000 µM
